From patent US20100028416A1, “DRUG CARRIERS” (Nitto Denko Corporation, priority 2008, published 2010)

System: HSC-T6 cells
Details: 96-well plate, excitation 560 nm, emission 590 nm, FIGS. 8-9, comparison with non-retinoid composition
Procedure: HSC-T6 cells, which express a vitamin A binding protein receptor, were seeded one day prior to experiment in a 96-well plate (100 μL culture medium per well). […] The solutions were diluted with culture medium and incubated for 15 minutes at room temperature. 15 μL was added to the cells. After incubating the cells in solution, the culture medium was removed. Cells were washed once with DPBS and fresh culture medium was added (100 μL culture medium per well). Absorbance (excitation and emission wavelengths were 560 nm and 590 nm, respectively) was read by a BioTek FLx800 96-well plate fluorescence reader and recorded.

## Texas Red-Dextran-Retinoid
  cell uptake (absorbance; greater absorbance indicates greater cell uptake): greater cellular uptake than the oleic acid composition
